A short description of the first data set: The drug is tested on Bacteroides fragilis strain: ATCC43859 for biotransformation. The drug concentrations were measured before and after a 12-h incubation by liquid-chromatography-coupled mass spectrometry (LC–MS). Particulars: 2 µM.
Turning to `CCC(C)n1ncn(-c2ccc(N3CCN(c4ccc(OCC5COC(Cn6cncn6)(c6ccc(Cl)cc6Cl)O5)cc4)CC3)cc2)c1=O` (stereo not drawn) [ITRACONAZOLE], the “Bacterial Biotransformation” value is recorded as “Compound NOT metabolized”.

With `CNCC[C@H](Oc1cccc2ccccc12)c1cccs1` [DULOXETINE], the “Bacterial Biotransformation” value is “Compound NOT metabolized”.

A further data set is described as follows: The drug is tested on Enterobacter cancerogenus strain: ATCC35316 for biotransformation. The drug concentrations were measured before and after a 12-h incubation by liquid-chromatography-coupled mass spectrometry (LC–MS). Particulars: 2 µM.
For `CCC(C)n1ncn(-c2ccc(N3CCN(c4ccc(OCC5COC(Cn6cncn6)(c6ccc(Cl)cc6Cl)O5)cc4)CC3)cc2)c1=O` (stereo not drawn) [ITRACONAZOLE], the “Bacterial Biotransformation” value is given as “Compound NOT metabolized”.

On to `CNCC[C@H](Oc1cccc2ccccc12)c1cccs1` [DULOXETINE], for which the “Bacterial Biotransformation” value is “Compound metabolized”.

A further data set is described as follows: The drug is tested on Coprococcus comes strain: ATCC27758 for biotransformation. The drug concentrations were measured before and after a 12-h incubation by liquid-chromatography-coupled mass spectrometry (LC–MS). The data set is classed as ADME. Details: dose 2 uM, timepoint 0 vs 12 hours. Particulars: 2 µM.
Turning to `CCC(C)n1ncn(-c2ccc(N3CCN(c4ccc(OCC5COC(Cn6cncn6)(c6ccc(Cl)cc6Cl)O5)cc4)CC3)cc2)c1=O` (stereo not drawn) [ITRACONAZOLE], the “Bacterial Biotransformation” value is given as “Compound NOT metabolized”.

A further data set can be described thus: The drug is tested on Bacteroides coprophilus strain: DSM18228 for biotransformation. The drug concentrations were measured before and after a 12-h incubation by liquid-chromatography-coupled mass spectrometry (LC–MS). Particulars: 2 µM.
Turning to `CCC(C)n1ncn(-c2ccc(N3CCN(c4ccc(OCC5COC(Cn6cncn6)(c6ccc(Cl)cc6Cl)O5)cc4)CC3)cc2)c1=O` (stereo not drawn) [ITRACONAZOLE], the “Bacterial Biotransformation” value is “Compound NOT metabolized”.

Take `CNCC[C@H](Oc1cccc2ccccc12)c1cccs1` [DULOXETINE]: the “Bacterial Biotransformation” value is listed as “Compound metabolized”.

A short description of the next data set: The drug is tested on Collinsella intestinalis strain: DSM13280 for biotransformation. The drug concentrations were measured before and after a 12-h incubation by liquid-chromatography-coupled mass spectrometry (LC–MS). Particulars: 2 µM.
As for `CCC(C)n1ncn(-c2ccc(N3CCN(c4ccc(OCC5COC(Cn6cncn6)(c6ccc(Cl)cc6Cl)O5)cc4)CC3)cc2)c1=O` (stereo not drawn) [ITRACONAZOLE], the “Bacterial Biotransformation” value is “Compound NOT metabolized”.

Regarding `CNCC[C@H](Oc1cccc2ccccc12)c1cccs1` [DULOXETINE], the “Bacterial Biotransformation” value is recorded as “Compound NOT metabolized”.

The next data set can be described thus: The drug is tested on Eubacterium rectale strain: ATCC33656 for biotransformation. The drug concentrations were measured before and after a 12-h incubation by liquid-chromatography-coupled mass spectrometry (LC–MS). Particulars: agathobacter rectalis, 2 µM.
For the molecule `CCC(C)n1ncn(-c2ccc(N3CCN(c4ccc(OCC5COC(Cn6cncn6)(c6ccc(Cl)cc6Cl)O5)cc4)CC3)cc2)c1=O` (stereo not drawn) [ITRACONAZOLE], the “Bacterial Biotransformation” value is “Compound NOT metabolized”.

As for `CNCC[C@H](Oc1cccc2ccccc12)c1cccs1` [DULOXETINE], the “Bacterial Biotransformation” value is reported as “Compound NOT metabolized”.

A further data set can be described thus: The drug is tested on Blautia luti strain: DSM14534 for biotransformation. The drug concentrations were measured before and after a 12-h incubation by liquid-chromatography-coupled mass spectrometry (LC–MS). The data set is classed as ADME. Also noted: dose 2 uM, timepoint 0 vs 12 hours. Particulars: 2 µM.
In the case of `CCC(C)n1ncn(-c2ccc(N3CCN(c4ccc(OCC5COC(Cn6cncn6)(c6ccc(Cl)cc6Cl)O5)cc4)CC3)cc2)c1=O` (stereo not drawn) [ITRACONAZOLE], the “Bacterial Biotransformation” value is reported as “Compound NOT metabolized”.

For the molecule `CNCC[C@H](Oc1cccc2ccccc12)c1cccs1` [DULOXETINE], the “Bacterial Biotransformation” value is listed as “Compound NOT metabolized”.

The next data set in a line: The drug is tested on Bacteroides fragilis strain: HMW610 for biotransformation. The drug concentrations were measured before and after a 12-h incubation by liquid-chromatography-coupled mass spectrometry (LC–MS). Particulars: 2 µM.
Regarding `CCC(C)n1ncn(-c2ccc(N3CCN(c4ccc(OCC5COC(Cn6cncn6)(c6ccc(Cl)cc6Cl)O5)cc4)CC3)cc2)c1=O` (stereo not drawn) [ITRACONAZOLE], the “Bacterial Biotransformation” value is on record as “Compound NOT metabolized”.

Another data set is described as follows: The drug is tested on Edwardsiella tarda strain: ATCC23685 for biotransformation. The drug concentrations were measured before and after a 12-h incubation by liquid-chromatography-coupled mass spectrometry (LC–MS). Particulars: 2 µM.
For `CCC(C)n1ncn(-c2ccc(N3CCN(c4ccc(OCC5COC(Cn6cncn6)(c6ccc(Cl)cc6Cl)O5)cc4)CC3)cc2)c1=O` (stereo not drawn) [ITRACONAZOLE], the “Bacterial Biotransformation” value is “Compound NOT metabolized”.

For the next data set the following is noted: bacteroides stercoris, 12 h, 2 µM.
Description: The drug is tested on Bacteroides stercoris strain: ATCC43183 for biotransformation. The drug concentrations were measured before and after a 12-h incubation by liquid-chromatography-coupled mass spectrometry (LC–MS)
For the molecule `CCC(C)n1ncn(-c2ccc(N3CCN(c4ccc(OCC5COC(Cn6cncn6)(c6ccc(Cl)cc6Cl)O5)cc4)CC3)cc2)c1=O` (stereo not drawn) [ITRACONAZOLE], the “Bacterial Biotransformation” value was “Compound NOT metabolized”.

In the case of `CNCC[C@H](Oc1cccc2ccccc12)c1cccs1` [DULOXETINE], the “Bacterial Biotransformation” value is reported as “Compound metabolized”.

A short description of another data set: The drug is tested on Clostridium symbiosum strain: ATCC14940 for biotransformation. The drug concentrations were measured before and after a 12-h incubation by liquid-chromatography-coupled mass spectrometry (LC–MS). Particulars: 2 µM.
As for `CCC(C)n1ncn(-c2ccc(N3CCN(c4ccc(OCC5COC(Cn6cncn6)(c6ccc(Cl)cc6Cl)O5)cc4)CC3)cc2)c1=O` (stereo not drawn) [ITRACONAZOLE], the “Bacterial Biotransformation” value is on record as “Compound NOT metabolized”.

As to `CNCC[C@H](Oc1cccc2ccccc12)c1cccs1` [DULOXETINE], the “Bacterial Biotransformation” value was “Compound NOT metabolized”.

Another data set is described as follows: The drug is tested on Dorea formicigenerans strain: ATCC27755 for biotransformation. The drug concentrations were measured before and after a 12-h incubation by liquid-chromatography-coupled mass spectrometry (LC–MS). Particulars: 2 µM.
For `CCC(C)n1ncn(-c2ccc(N3CCN(c4ccc(OCC5COC(Cn6cncn6)(c6ccc(Cl)cc6Cl)O5)cc4)CC3)cc2)c1=O` (stereo not drawn) [ITRACONAZOLE], the “Bacterial Biotransformation” value is given as “Compound NOT metabolized”.

With `CNCC[C@H](Oc1cccc2ccccc12)c1cccs1` [DULOXETINE], the “Bacterial Biotransformation” value is listed as “Compound NOT metabolized”.

A further data set is described as follows: The drug is tested on Bacteroides pectinophilus strain: ATCC43243 for biotransformation. The drug concentrations were measured before and after a 12-h incubation by liquid-chromatography-coupled mass spectrometry (LC–MS). Particulars: 2 µM.
Regarding `CCC(C)n1ncn(-c2ccc(N3CCN(c4ccc(OCC5COC(Cn6cncn6)(c6ccc(Cl)cc6Cl)O5)cc4)CC3)cc2)c1=O` (stereo not drawn) [ITRACONAZOLE], the “Bacterial Biotransformation” value is “Compound NOT metabolized”.

Regarding `CNCC[C@H](Oc1cccc2ccccc12)c1cccs1` [DULOXETINE], the “Bacterial Biotransformation” value is “Compound NOT metabolized”.

A further data set in a line: The drug is tested on Parabacteroides merdae strain: ATCC43184 for biotransformation. The drug concentrations were measured before and after a 12-h incubation by liquid-chromatography-coupled mass spectrometry (LC–MS). Particulars: 2 µM.
In the case of `CCC(C)n1ncn(-c2ccc(N3CCN(c4ccc(OCC5COC(Cn6cncn6)(c6ccc(Cl)cc6Cl)O5)cc4)CC3)cc2)c1=O` (stereo not drawn) [ITRACONAZOLE], the “Bacterial Biotransformation” value is recorded as “Compound NOT metabolized”.

With `CNCC[C@H](Oc1cccc2ccccc12)c1cccs1` [DULOXETINE], the “Bacterial Biotransformation” value is “Compound metabolized”.

The next data set can be described thus: The drug is tested on Bacteroides ovatus strain: ATCC8483 for biotransformation. The drug concentrations were measured before and after a 12-h incubation by liquid-chromatography-coupled mass spectrometry (LC–MS). Particulars: 2 µM.
Turning to `CCC(C)n1ncn(-c2ccc(N3CCN(c4ccc(OCC5COC(Cn6cncn6)(c6ccc(Cl)cc6Cl)O5)cc4)CC3)cc2)c1=O` (stereo not drawn) [ITRACONAZOLE], the “Bacterial Biotransformation” value was “Compound NOT metabolized”.

With `CNCC[C@H](Oc1cccc2ccccc12)c1cccs1` [DULOXETINE], the “Bacterial Biotransformation” value was “Compound metabolized”.

The next data set in a line: The drug is tested on Clostridium asparagiforme strain: DSM15981 for biotransformation. The drug concentrations were measured before and after a 12-h incubation by liquid-chromatography-coupled mass spectrometry (LC–MS). The data set is classed as ADME. Also noted: dose 2 uM, timepoint 0 vs 12 hours. Particulars: enterocloster asparagiformis, 2 µM.
For `CCC(C)n1ncn(-c2ccc(N3CCN(c4ccc(OCC5COC(Cn6cncn6)(c6ccc(Cl)cc6Cl)O5)cc4)CC3)cc2)c1=O` (stereo not drawn) [ITRACONAZOLE], the “Bacterial Biotransformation” value is recorded as “Compound NOT metabolized”.

On to `CNCC[C@H](Oc1cccc2ccccc12)c1cccs1` [DULOXETINE], for which the “Bacterial Biotransformation” value was “Compound NOT metabolized”.

The nature of a further data set: The drug is tested on Ruminococcus torques strain: ATCC27756 for biotransformation. The drug concentrations were measured before and after a 12-h incubation by liquid-chromatography-coupled mass spectrometry (LC–MS). The data set is classed as ADME. Particulars: 2 µM. Also noted: dose 2 uM, timepoint 0 vs 12 hours.
For `CCC(C)n1ncn(-c2ccc(N3CCN(c4ccc(OCC5COC(Cn6cncn6)(c6ccc(Cl)cc6Cl)O5)cc4)CC3)cc2)c1=O` (stereo not drawn) [ITRACONAZOLE], the “Bacterial Biotransformation” value was “Compound NOT metabolized”.

On to `CNCC[C@H](Oc1cccc2ccccc12)c1cccs1` [DULOXETINE], for which the “Bacterial Biotransformation” value is recorded as “Compound NOT metabolized”.

For another data set the following is noted: enterocloster bolteae, 12 h, 2 µM.
Description: The drug is tested on Clostridium bolteae strain: ATCCBAA-613 for biotransformation. The drug concentrations were measured before and after a 12-h incubation by liquid-chromatography-coupled mass spectrometry (LC–MS)
Take `CCC(C)n1ncn(-c2ccc(N3CCN(c4ccc(OCC5COC(Cn6cncn6)(c6ccc(Cl)cc6Cl)O5)cc4)CC3)cc2)c1=O` (stereo not drawn) [ITRACONAZOLE]: the “Bacterial Biotransformation” value is “Compound NOT metabolized”.

`CNCC[C@H](Oc1cccc2ccccc12)c1cccs1` [DULOXETINE]: the “Bacterial Biotransformation” value is on record as “Compound NOT metabolized”.

These data come from ChEMBL document CHEMBL5303573, “Mapping human microbiome drug metabolism by gut bacteria and their genes” (Nature, 2019).
